According to PubChem BioAssay (NCI):
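Step 1: Grow cells in 96-well plates. Step 2: Expose to compound for 48 hours at 5 concentrations. Step 3: Interpolate endpoints linearly; if unreached, use highest concentration. At the TGI there is no net growth.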

What was measured:
Experiment in all cases: NCI anticancer screen, dose series, 48 h
LOX IMVI melanoma = system: LOX IMVI melanoma
UACC-257 melanoma = system: UACC-257 melanoma
IGROV1 ovarian = system: IGROV1 ovarian
XF 498 CNS = system: XF 498 CNS
SNB-19 CNS = system: SNB-19 CNS
HL-60(TB) leukemia = system: HL-60(TB) leukemia
CAKI-1 renal = system: CAKI-1 renal
SR leukemia = system: SR leukemia
SW-620 colon = system: SW-620 colon
SF-268 CNS = system: SF-268 CNS
MALME-3M melanoma = system: MALME-3M melanoma
KM12 colon = system: KM12 colon
HOP-62 NSCLC = system: HOP-62 NSCLC
A549 NSCLC = system: A549 NSCLC
OVCAR-8 ovarian = system: OVCAR-8 ovarian
CCRF-CEM leukemia = system: CCRF-CEM leukemia
U251 CNS = system: U251 CNS
SK-MEL-5 melanoma = system: SK-MEL-5 melanoma
ACHN renal = system: ACHN renal
OVCAR-4 ovarian = system: OVCAR-4 ovarian
OVCAR-5 ovarian = system: OVCAR-5 ovarian
SF-295 CNS = system: SF-295 CNS
RPMI-8226 leukemia = system: RPMI-8226 leukemia
SN12C renal = system: SN12C renal
HOP-18 NSCLC = system: HOP-18 NSCLC
OVCAR-3 ovarian = system: OVCAR-3 ovarian
SNB-78 CNS = system: SNB-78 CNS
MOLT-4 leukemia = system: MOLT-4 leukemia
RXF 393 renal = system: RXF 393 renal
HCC-2998 colon = system: HCC-2998 colon
NCI-H522 lung = system: NCI-H522 lung
UACC-62 melanoma = system: UACC-62 melanoma
EKVX NSCLC = system: EKVX NSCLC
LXFL 529 NSCLC = system: LXFL 529 NSCLC
SF-539 CNS = system: SF-539 CNS
786-0 renal = system: 786-0 renal
M14 melanoma = system: M14 melanoma
HCT-15 colon = system: HCT-15 colon
NCI-H23 lung = system: NCI-H23 lung
HT29 colon = system: HT29 colon
K-562 leukemia = system: K-562 leukemia
SNB-75 CNS = system: SNB-75 CNS
NCI-H460 lung = system: NCI-H460 lung
M19-MEL melanoma = system: M19-MEL melanoma
SK-MEL-2 melanoma = system: SK-MEL-2 melanoma
KM20L2 colon = system: KM20L2 colon
DLD-1 colon = system: DLD-1 colon
HCT-116 colon = system: HCT-116 colon
UO-31 renal = system: UO-31 renal
COLO 205 colon = system: COLO 205 colon
NCI-H226 lung = system: NCI-H226 lung
SK-MEL-28 melanoma = system: SK-MEL-28 melanoma

COc1ccc(-c2onc(-c3ccc([N+](=O)[O-])cc3)c2C2=NCCCN2)cc1
TGI (LOX IMVI melanoma): > 100 µM | TGI (UACC-257 melanoma): > 100 µM | TGI (IGROV1 ovarian): > 100 µM | TGI (XF 498 CNS): > 100 µM | TGI (SNB-19 CNS): > 100 µM | TGI (HL-60(TB) leukemia): > 100 µM | TGI (CAKI-1 renal): > 100 µM | TGI (SR leukemia): > 100 µM | TGI (SW-620 colon): > 100 µM | TGI (SF-268 CNS): > 100 µM | TGI (MALME-3M melanoma): > 100 µM | TGI (KM12 colon): > 100 µM | TGI (HOP-62 NSCLC): > 100 µM | TGI (A549 NSCLC): > 100 µM | TGI (OVCAR-8 ovarian): > 100 µM | TGI (CCRF-CEM leukemia): > 100 µM | TGI (U251 CNS): > 100 µM | TGI (SK-MEL-5 melanoma): > 100 µM | TGI (ACHN renal): > 100 µM | TGI (OVCAR-4 ovarian): > 100 µM | TGI (OVCAR-5 ovarian): > 100 µM | TGI (SF-295 CNS): > 100 µM | TGI (RPMI-8226 leukemia): > 100 µM | TGI (SN12C renal): > 100 µM | TGI (HOP-18 NSCLC): > 100 µM | TGI (OVCAR-3 ovarian): 85.5 µM | TGI (SNB-78 CNS): > 100 µM | TGI (MOLT-4 leukemia): > 100 µM | TGI (RXF 393 renal): > 100 µM | TGI (HCC-2998 colon): > 100 µM | TGI (NCI-H522 lung): > 100 µM | TGI (UACC-62 melanoma): > 100 µM | TGI (EKVX NSCLC): > 100 µM | TGI (LXFL 529 NSCLC): > 100 µM | TGI (SF-539 CNS): > 100 µM | TGI (786-0 renal): > 100 µM | TGI (M14 melanoma): > 100 µM | TGI (HCT-15 colon): > 100 µM | TGI (NCI-H23 lung): > 100 µM | TGI (HT29 colon): > 100 µM | TGI (K-562 leukemia): > 100 µM | TGI (SNB-75 CNS): > 100 µM | TGI (NCI-H460 lung): > 100 µM | TGI (M19-MEL melanoma): > 100 µM | TGI (SK-MEL-2 melanoma): > 100 µM | TGI (KM20L2 colon): > 100 µM | TGI (DLD-1 colon): > 100 µM | TGI (HCT-116 colon): > 100 µM | TGI (UO-31 renal): > 100 µM | TGI (COLO 205 colon): > 100 µM | TGI (NCI-H226 lung): > 100 µM | TGI (SK-MEL-28 melanoma): > 100 µM
